Assay results from patent US11040028B2, “Penicinotam derivative, preparation method and use thereof” (OCEAN UNIVERSITY OF CHINA, priority 2017, dated 2021).

What was measured:
Type in all cases: cell-based
[1] = tested on: human embryonic lung fibroblast IMR-90; assay: Anti-fibrosis activity test: inhibition of proliferation of human embryonic lung fibroblast IMR-90 (CCK-8)
Summary of the method: (§1)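 Exponentially growing cells, 2×10^4 cells/mL, attached 24 h. Dosed 48 h across concentrations (n=3). CCK-8 2 h → A450; IR vs blank; IC50.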

[2] = tested on: human fibrosarcoma cells HT-1080; assay: Anti-fibrosis activity test: inhibition of proliferation of human fibrosarcoma cells HT-1080 (CCK-8); details: Homo sapiens, HT-1080, 48 h
Summary of the method: as §1

NF-κB = assay: Immunological activity test: inhibition of NF-κB activity; details: initial concentration of 30 μM; a/b isomers given as first/second symbol; read-out: IC50 (μM), inhibitory activity against NF-κB
Source text: Main references for immunological activity test of the compounds of the present application includes: Vogl, S.; Atanasov, A. G.; Binder, M.; Bulusu, M.; Zehl, M.; Fakhrudin, N.; Heiss, E. H.; Picker, P.; Wawrosch, C.; Saukel, J.; Reznicek, G.; Urban, E.; Bochkov, V.; Dirsch, V. M.; Kopp, B. J. Evid-Based Complementary Alern. Med. 2013, ID 395316. Commercially available parthenolide was utilized as a positive control.
The ability of the compounds of the present application to inhibit NF-κB activity was tested at an initial concentration of 30 μM.
The assay data for the compounds of the present application were further analyzed to determine their IC50 values.

[3] = tested on: human dermal fibroblasts CCC-ESF-1; assay: Anti-fibrosis activity test: inhibition of proliferation of human dermal fibroblasts CCC-ESF-1 (CCK-8); details: Fibroblast
Summary of the method: as §1

[4] = tested on: cardiac fibroblast RAT-iCell-C002; assay: Anti-fibrosis activity test: inhibition of proliferation of cardiac fibroblast RAT-iCell-C002 (CCK-8); details: Cardiac fibroblast, 48 h
Summary of the method: as §1

[5] = tested on: human hepatic stellate cells LX-2; assay: Anti-fibrosis activity test: inhibition of proliferation of human hepatic stellate cells LX-2 (CCK-8); details: Homo sapiens, 48 h
Summary of the method: as §1

[6] = tested on: human lung fibroblasts HFL1; assay: Anti-fibrosis activity test: inhibition of proliferation of human lung fibroblasts HFL1 (CCK-8); details: Homo sapiens, HFL1, 48 h
Summary of the method: as §1

BHK-21 cells = assay: Anti-fibrosis activity test: inhibition of BHK-21 cell proliferation (CCK-8); details: Mesocricetus auratus, BHK-21, 48 h
Summary of the method: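 Each concentration was tested in triplicate on adhered BHK-21 cells for 48 h, with pirfenidone as reference. A 2 h CCK-8 incubation preceded absorbance reading at 450 nm, and IC50 was obtained from percent inhibition versus blank.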

[7] = human embryonic lung fibroblast IMR-90, CCK-8, 48 hours
[8] = human fibrosarcoma cells HT-1080, CCK-8, 48 hours
[9] = human dermal fibroblasts CCC-ESF-1, CCK-8, 48 hours
[10] = cardiac fibroblast RAT-iCell-C002, CCK-8, 48 hours
[11] = human hepatic stellate cells LX-2, CCK-8, 48 hours
[12] = human lung fibroblasts HFL1, CCK-8, 48 hours
[13] = CCK-8, 48 hours after administration

IC50 [2, 8] [mM]	IC50 (NF-κB) [µM]	IC50 ([2]; HT-1080 cells, 48 h, CCK-8) [mM]	Structure (SMILES)	IC50 [1, 7] [mM]	IC50 [3, 9] [mM]	IC50 [4, 10] [mM]	IC50 [5, 11] [mM]	IC50 [6, 12] [mM]	IC50 (BHK-21 cells; [13]) [mM]	IC50 ([1]; Homo sapiens, IMR-90 cells, 48 h, CCK-8) [mM]	IC50 ([3]; Homo sapiens, CCC-ESF-1 cells, 48 h, CCK-8) [mM]	IC50 ([4]; RAT-iCell-C002 cells, CCK-8) [mM]	IC50 ([5]; LX-2, 48 h, LX-2 cells, CCK-8) [mM]	IC50 ([6]; HFL1 cells, 48 h, CCK-8) [mM]	IC50 (BHK-21 cells; 48 h, CCK-8) [mM]
0.05 to 5	0.1 to 1	–	O=C1c2c(n(-c3ccc(F)cc3)c3ccccc3c2=O)-c2cccn21 [Compound 18a, 4-(4-Fluorophenyl)-9H-pyrrolizino[1,2-b]quinoline-9,10(4H)-dione]	0.05 to 5	0.05 to 5	0.05 to 5	5 to 20	0.05 to 5	< 0.05	–	–	–	–	–	–
0.05 to 5	1 to 10	–	CC(C)=CCOc1c2c(nc3ccccc13)-c1cccn1C2=O [Compound 9b, 9-((3-methylbut-2-en-1-yl)oxy)-10H-pyrrolizino[1,2-b]quinolin-10-one]	0.05 to 5	5 to 20	0.05 to 5	0.05 to 5	0.05 to 5	5 to 20	–	–	–	–	–	–
–	1 to 10	0.05 to 5	Cc1ccc2c(=O)c3c([nH]c2c1)-c1cccn1C3=O [Compound 714a, 6-Methyl-9H-pyrrolizino[1,2-b]quinoline-9,10(4H)-dione]	–	–	–	–	–	–	0.05 to 5	0.05 to 5	0.05 to 5	0.05 to 5	0.05 to 5	0.05 to 5
0.05 to 5	1 to 10	–	O=C1c2c(nc3ccc(F)cc3c2OCc2ccc(C(F)(F)F)cc2)-c2cccn21 [Compound 620b, 7-Fluoro-9-((4-(trifluoromethyl)benzyl)oxy)-10H-pyrrolizino[1,2-b]quinolin-10-one]	0.05 to 5	5 to 20	0.05 to 5	0.05 to 5	0.05 to 5	0.05 to 5	–	–	–	–	–	–
0.05 to 5	1 to 10	–	O=C1c2c(n(Cc3ccc(Cl)cc3)c3ccc(F)cc3c2=O)-c2cccn21 [Compound 618a, 4-(4-Chlorobenzyl)-7-fluoro-9H-pyrrolizino[1,2-b]quinoline-9,10(4H)-dione]	0.05 to 5	0.05 to 5	0.05 to 5	0.05 to 5	0.05 to 5	0.05 to 5	–	–	–	–	–	–
0.05 to 5	1 to 10	–	O=C1c2c(nc3ccccc3c2Oc2ccc(F)cc2)-c2cccn21 [Compound 18b, 9-(4-fluorophenoxy)-10H-pyrrolizino[1,2-b]quinolin-10-one]	0.05 to 5	0.05 to 5	0.05 to 5	0.05 to 5	0.05 to 5	0.05 to 5	–	–	–	–	–	–
5 to 20	1 to 10	–	N#Cc1ccc2c(=O)c3c(n(Cc4cccc(F)c4)c2c1)-c1cccn1C3=O [Compound 515a, 4-(3-Fluorobenzyl)-9,10-dioxo-4,10-dihydro-9H-pyrrolizino[1,2-b]quinoline-6-carbonitrile]	0.05 to 5	0.05 to 5	0.05 to 5	0.05 to 5	0.05 to 5	0.05 to 5	–	–	–	–	–	–
0.05 to 5	1 to 10	–	O=C1c2c(n(Cc3ccccc3Cl)c3cc(C(F)(F)F)ccc3c2=O)-c2cccn21 [Compound 546a, 4-(2-Chlorobenzyl)-6-(trifluoromethyl)-9H-pyrrolizino[1,2-b]quinoline-9,10(4H)-dione]	0.05 to 5	0.05 to 5	0.05 to 5	0.05 to 5	0.05 to 5	< 0.05	–	–	–	–	–	–
0.05 to 5	0.1 to 1	–	N#Cc1ccc2c(c1)c(=O)c1c(n2Cc2ccc(F)cc2)-c2cccn2C1=O [Compound 624a, 4-(4-Fluorobenzyl)-9,10-dioxo-4,10-dihydro-9H-pyrrolizino[1,2-b]quinoline-7-carbonitrile]	0.05 to 5	0.05 to 5	0.05 to 5	5 to 20	< 0.05	< 0.05	–	–	–	–	–	–
0.05 to 5	1 to 10	–	O=C1c2c(nc3ccc(F)cc3c2OCc2ccc(Cl)cc2)-c2cccn21 [Compound 618b, 9-((4-chlorobenzyl)oxy)-7-fluoro-10H-pyrrolizino[1,2-b]quinolin-10-one]	0.05 to 5	0.05 to 5	0.05 to 5	0.05 to 5	0.05 to 5	0.05 to 5	–	–	–	–	–	–
0.05 to 5	0.1 to 1	–	N#Cc1ccc2c(=O)c3c(n(Cc4ccccc4F)c2c1)-c1cccn1C3=O [Compound 516a, 4-(2-Fluorobenzyl)-9,10-dioxo-4,10-dihydro-9H-pyrrolizino[1,2-b]quinoline-6-carbonitrile]	0.05 to 5	0.05 to 5	0.05 to 5	0.05 to 5	0.05 to 5	< 0.05	–	–	–	–	–	–
0.05 to 5	1 to 10	–	O=C1c2c(n(Cc3cc(C(F)(F)F)cc(C(F)(F)F)c3)c3cc(N4CCNCC4)ccc3c2=O)-c2cccn21 [Compound 631a, 4-(3,5-Bis(trifluoromethyl)benzyl)-6-(piperazin-1-yl)-9H-pyrrolizino[1,2-b]quinoline-9,10(4H)-dione]	0.05 to 5	0.05 to 5	0.05 to 5	0.05 to 5	0.05 to 5	0.05 to 5	–	–	–	–	–	–
0.05 to 5	1 to 10	–	CC(C)=CCn1c2c(c(=O)c3ccccc31)C(=O)n1cccc1-2 [Compound 9a, 4-(3-Methylbut-2-en-1-yl)-9H-pyrrolizino[1,2-b]quinoline-9,10(4H)-dione]	0.05 to 5	5 to 20	0.05 to 5	0.05 to 5	0.05 to 5	20 to 100	–	–	–	–	–	–
0.05 to 5	1 to 10	–	N#Cc1ccc2c(OCc3ccc(F)cc3)c3c(nc2c1)-c1cccn1C3=O [Compound 514b, 9-((4-fluorobenzyl)oxy)-10-oxo-10H-pyrrolizino[1,2-b]quinoline-6-carbonitrile]	0.05 to 5	0.05 to 5	0.05 to 5	0.05 to 5	0.05 to 5	0.05 to 5	–	–	–	–	–	–
0.05 to 5	1 to 10	–	O=C1c2c(nc3ccccc3c2Oc2ccc(Br)cc2)-c2cccn21 [Compound 64b, 9-(4-bromophenoxy)-10H-pyrrolizino[1,2-b]quinolin-10-one]	0.05 to 5	0.05 to 5	0.05 to 5	0.05 to 5	0.05 to 5	0.05 to 5	–	–	–	–	–	–
0.05 to 5	1 to 10	–	N#Cc1ccc(Cn2c3c(c(=O)c4cc(C#N)ccc42)C(=O)n2cccc2-3)cc1 [Compound 626a, 4-(4-Cyanobenzyl)-9,10-dioxo-4,10-dihydro-9H-pyrrolizino[1,2-b]quinoline-7-carbonitrile]	0.05 to 5	< 0.05	0.05 to 5	0.05 to 5	0.05 to 5	0.05 to 5	–	–	–	–	–	–
0.05 to 5	1 to 10	–	O=C1c2c(nc3cc(C(F)(F)F)ccc3c2OCc2cccc(Cl)c2)-c2cccn21 [Compound 545b, 9-((3-chlorobenzyl)oxy)-6-(trifluoromethyl)-10H-pyrrolizino[1,2-b]quinolin-10-one]	0.05 to 5	0.05 to 5	0.05 to 5	0.05 to 5	0.05 to 5	0.05 to 5	–	–	–	–	–	–
0.05 to 5	1 to 10	–	O=C1c2c(n(Cc3ccc(Cl)cc3F)c3ccc(F)cc3c2=O)-c2cccn21 [Compound 621a, 4-(4-Chloro-2-fluorobenzyl)-7-fluoro-9H-pyrrolizino[1,2-b]quinoline-9,10(4H)-dione]	0.05 to 5	0.05 to 5	0.05 to 5	0.05 to 5	0.05 to 5	0.05 to 5	–	–	–	–	–	–
